Data on seven substances can be found in patent publication US7482329B2, “Single domain TDF-related compounds and analogs thereof” (Thrasos Therapeutics, priority 2002, dated 2009).

For test [1], the target named is T1, BMPR-2 receptor extra cellular domain (Homo sapiens, UniProt Q13873).
T1 construct: immobilized BMPR-2 receptor extra cellular domain (ECD)
T1 sequence (Q13873 27-150 limits assumed): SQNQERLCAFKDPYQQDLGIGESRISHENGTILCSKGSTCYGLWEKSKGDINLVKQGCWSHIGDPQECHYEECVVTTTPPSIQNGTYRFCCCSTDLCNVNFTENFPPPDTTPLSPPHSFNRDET
Put plainly: Radio-ligand receptor binding assay, competition with 125I-labeled TDF-1 for BMPR-2. To be noted: competitive binding, FIG. 4. The text has this: (§1) General protocol: These assays are based on competition between ^125I-labeled TDF-1 (BMP-7 or OP-1) and candidate TDFRP compounds or unlabeled TDF-1 for binding to respective receptors (ALK-3, ALK-6 or BMPR-2). In brief, the procedure involves immobilization of receptor on 96 well Removawell plates, blocking the wells with 3% BSA in PBS and subsequently washing the wells. Increasing concentrations of unlabeled TDF-1 or TDFRP compounds or control (unlabeled TDF-1) prepared in binding buffer are then added. Incubate plate for 1 hour at room temperature, and then add a fixed amount of ^125I-labeled TDF-1 (250,000 to 350,000 cpm) to the wells and further incubate in cold (4° C.) for 20 hours. Aspirate the contents of the wells and wash the wells four times with a wash buffer, and count the receptor bound ^125I-labeled TDF-1 in an auto gamma counter. B. HK-2 Cell Culture and Determination of Cytokine Production

The target of test [2] is T2, BMPR-1A (ALK3) receptor extra cellular domain (Homo sapiens, UniProt P36894).
T2 construct: immobilized BMPR-1A receptor extra cellular domain (ECD)
Nature of the test: Radio-ligand receptor binding assay, competition with 125I-labeled TDF-1 for ALK-3. To be noted: competitive binding assay, FIG. 2.
Text: as §1

Test [3] concerns HK-2 cells. Put plainly: Anti-inflammatory activity in HK-2 cell culture (FIG. 11-13). To be noted: marker not stated. In kind it is cell-based, human. As for the experimental part: (§2) The immortalized PTEC-derived HK-2 (Human Kidney-2) cells (ATCC number CRL-2190) were grown in serum-free keratinocyte medium (GIBCO number 17005-042) supplemented with epidermal growth factor (EGF: 5 ng/mL) and bovine pituitary extract (40 ug/mL) for 48 hours as described previously (Ryan et al (1994) Kidney International 45:48-57). Cells were transferred to 24-well plates at a density of 3×10^5 cells per well. After 24 hours, cells were incubated with fresh medium containing TNF-alpha (5 ng/mL) for 20 hours. Controls received medium alone. Then cells were washed twice with fresh culture medium and further incubated with culture medium alone (medium control, and TNF control wells) or TDF-1 at three different concentrations (40, 200 or 1000 ng/mL) or TDFRP compounds at three different concentrations (4, 20 or 100 uM) for sixty hours. During incubation, cells were kept in a 5% CO2 humid atmosphere at 37° C. At the end of the incubation, the media were removed and stored frozen until assayed. The concentrations of IL-6 and sICAM-in culture supernatants were measured by specific ELISA.

In test [4] the test system is IL-6 in HK2 human transformed kidney proximal tubule cells. Nature of the test: IL-6 level in HK-2 cell medium after TNF-alpha stimulation (ELISA). In kind it is cell-based. To be noted: after TNF-alpha inflammatory stimulation, FIG. 6, FIG. 10. As for the experimental part:
as §2
Dilute the capture antibody to the working concentration in PBS, pH 7.4 without carrier protein. Add 61 uL of stock antibody (360 ug/mL) to 10.939 mL of PBS, gently vertex. Immediately coat a 96 well microplate (Immulon 4 HBX) with 100 uL per well of the diluted capture antibody. Seal the plate and incubate it overnight in cold (4° C.). (PBS: 8.1 mM Na2HPO4, 1.5 mM KH2PO4, 137 mM NaCl, 2.7 mM KCl, pH 7.4, 0.2 um filtered). Next day empty the wells and wash the wells three times, each time using 340 uL of wash buffer per well. (wash buffer: PBS, pH 7.4 containing 0.05% Tween-20).
Prepare blocking buffer, 35 mL per plate. To prepare blocking buffer, add 0.35 grams of BSA and 1.75 grams of sucrose to 35 mL of PBS, pH 7.4, and mix the contents gently. Add 300 uL of blocking buffer to each well and incubate the plate for a minimum of 1 hour at room temperature. Empty the wells and wash wells three times, each time using 340 uL of wash buffer per well.
Prepare a 8 point standard curve using 2-fold serial dilutions in reagent diluent. Dilute stock standard, recombinant IL-6, 70 ng/mL to an initial concentration of 2400 ng/mL in reagent diluent. Then further dilute the standard to a working range, 1200, 600, 300, 150, 75, 37.5, 18.75 and 9.375 ng/mL using reagent diluent. (to prepare reagent diluent, add 0.4 grams of BSA to 40 mL of PBS, pH 7.4 and gently vertex). Also dilute 24 uL of each sample medium (from HK-2 cell cultures) with 376 uL of reagent diluent. Add 100 uL of standard or sample per well, seal the plate and incubate it overnight in cold (4° C.).
Next day, empty the wells and wash wells three times, each time using 340 uL of wash buffer per well. […]
A general note: An ELISA detects its analyte on a solid surface through an enzyme-linked reagent.

T2 sequence (P36894 24-152 limits assumed, species assumed): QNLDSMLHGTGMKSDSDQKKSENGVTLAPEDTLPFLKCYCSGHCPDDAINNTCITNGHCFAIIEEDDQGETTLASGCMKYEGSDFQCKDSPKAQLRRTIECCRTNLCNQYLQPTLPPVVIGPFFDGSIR

“CIVNSSDDFLCKKYRS [SEQ ID NO:16, negative control peptide]”: the “specific binding to BMPR-2 / inhibition of specific binding of labeled TDF-1 to BMPR-2 receptor” value in test [1] is “does not inhibit”. Besides, the “specific binding to ALK3 / inhibition of specific binding of labeled TDF-1 to ALK3 receptor” value in test [2] is recorded as “does not inhibit”. For CLFDDSSNVICKKYRS [SEQ ID NO:15], the anti-inflammatory activity result in test [3] is recorded as “very weak anti-inflammatory activity”.

CYFDDNSNVICKKYRS [SEQ ID NO:42]: in test [3], the anti-inflammatory activity result was “no anti-inflammatory activity”. CYFDDSSNVICK [SEQ ID NO:21]: the “specific binding to ALK3 / inhibition of specific binding of labeled TDF-1 to ALK3 receptor” value in test [2] is reported as “specifically binds”. In addition, in test [3], the anti-inflammatory activity result is listed as “no anti-inflammatory activity”. Regarding CYFDDSSNVICKK [SEQ ID NO:20], the anti-inflammatory activity entry in test [3] is recorded as “no anti-inflammatory activity”.

With CYFDDSSQVICKKYRS [SEQ ID NO:43], the “effect on level of IL-6 in HK2 cell medium” value in test [4] is given as “brings the IL-6 level down below the basal level”. With “TP2.006: peptide printed as SEQ ID NO:45 in FIG. 12 legend; conflicts with TP2.003 = SEQ ID NO:45 in b271 (CYFDDSSNVLCKKYRS)”, the anti-inflammatory activity result in test [3] is “no anti-inflammatory activity”.
